Earlier results on one compound are cited in patent US4014909A, “Esters of 21-thiol steroids” (priority 1974, dated 1977).

For this data set the following is noted: J. Org. Chem. 26,1233, 1961; cited from earlier work.

`CC(=O)SCC(=O)[C@@]1(O)CC[C@H]2[C@@H]3CCC4=CC(=O)CC[C@]4(C)[C@H]3[C@@H](O)C[C@@]21C` [21-thio-acetate of hydrocortisone]: the Biological activity entry was “free of all interesting biological activity”.
